Here are results for two compounds from patent publication US12150955B2, “Iodine compositions” (DERMALIQ THERAPEUTICS, INC., priority 2017, dated 2024).

Series [1] can be described thus: Concentration of molecular iodine dissolved in the vehicle (saturated solutions). The class given is physicochemical. The method, then: Molecular iodine (I2) solutions in the semifluorinated alkane F4H5 at target concentrations of 0.01 mg/ml, 0.05 mg/ml, 0.1 mg/mL, 0.5 mg/mL, 0.55 mg/ml and 0.94 mg/mL were prepared. Molecular iodine was weighed into clear glass vials, followed by addition of the calculated volume of semifluorinated alkane F4H5. The compositions were stirred for 2 hours at room temperatures. The compositions provided clear pink solutions, ranging from strong pink/violet color at high concentrations (0.55 mg/ml) to very dilute pinkish colour at lower concentrations (0.01 mg/ml).
The 0.94 mg/ml solution was prepared by adding additional F4H5 to a composition comprising 1.0 mg/mL molecular iodine until all remaining molecular iodine particles were dissolved, providing a clear solution of deep pink/violet colour.
Molecular iodine (I2) solutions in the semifluorinated alkane F6H8 at target concentrations of 0.1 mg/mL, 0.5 mg/mL and 1.0 mg/mL were prepared. Molecular iodine was weighed into clear glass vials, followed by addition of the calculated volume of semifluorinated alkane F6H8. The compositions were stirred for 2 hours at room temperature
Additional F6H8 was added to the target 1.0 mg/mL composition until all remaining molecular iodine particles were dissolved, providing a clear solution, with a concentration of about 0.88 mg/mL. The solution is a deep pink/violet in colour.
Solutions with higher I2 concentrations may be prepared with the addition of ethanol (non-absolute or alternatively absolute). F4H5/EtOH-Concentrations of about 20 mg/mL of I2 in F4H5 are achieved when ethanol is added to an amount of 38% (w/w), relative to the weight of the vehicle The resulting composition is a red-brown coloured solution.
F6H8/EtOH-Solutions with higher I2 concentrations may be prepared with the addition of ethanol (non-absolute or alternatively absolute). Concentrations of about 20 mg/mL of I2 in F6H8 are achieved when ethanol is added to an amount of 38% (w/w), relative to the weight of the vehicle.
Saturated iodine solutions as prepared in Example 1 above of I2 in F4H5 (0.94 mg/mL) and F6H8 (0.88 mg/mL) were stored standing under ambient atmosphere and temperature conditions under a capped clear glass vial for 52 weeks without protection from light.

In another series the test system is Rabbit corneas. In words: Ex Vivo Eye Irritation Test (EVEIT), corneal healing. The method, then: A comparison in respect of corneal healing process was conducted for a composition comprising molecular iodine (0.25 mg/ml; 250 ppm) in 1-perfluorohexyl-octane (Composition B) with vehicle 1-perfluorohexyl-octane (Composition A) and hyaluronic acid (HYLO-COMOD®) as a reference and 0.01% BAC (benzalkonium chloride) as a control using an Ex Vivo Eye Irritation Test (EVEIT), similar to as described in M. Frentz et al, Altern. to Lab. Anim., 2008 (36) p 25-32; and N. Schrage et al, Graefes Arch Clin Exp Ophthalmol 2012 (250), 1330-1340).
Method. […]
After 12 h of stabilization in the culture chamber, the corneas were evaluated by microscopy and corneas with intact epithelium and without opacities were selected. […] All defects were monitored by fluorescein sodium staining (0.17% aq. solution) and microscopy.
The test substances were administered one hour after induction of the corneal erosion and were applied six times daily onto the apex of the corneas (30-50 μL every four hours). […] All defects were monitored by fluorescein sodium stains (0.17% aq. solution) with yellow green fluorescence indicating the areas of epithelial defects. Erosion sizes were determined using a software tool of the microscope (DISKUS). […] To monitor the metabolic activity of the cornea, glucose and lactate concentrations were photometrically quantified in the outflow medium from the artificial anterior chambers.

`II` [molecular iodine, Molecular iodine]: the “concentration at which all molecular iodine particles were dissolved (saturated solution)” value was 940 µg/mL in series [1] (in F4H5, room temperature) and “about 0.88 mg/mL” in series [1] (in F6H8, room temperature). Besides, the I2 concentration achieved entry in series [1] (in F4H5 with ethanol 38% (w/w) of the vehicle) and in series [1] (in F6H8 with ethanol 38% (w/w) of the vehicle) was “about 20 mg/mL” each time.
With benzalkonium chloride [0.01% BAC], in the series on Rabbit corneas, the “corneal healing process after induction of corneal erosion (in words)” value is given as “progressive increase of the induced epithelial lesions”.
